Assay results as given in patent publication US20260209301A1, “Galanin-2 Receptor Agonists” (LIFEARC, priority 2022, published 2026).
Where two headings read alike, the source gives them in different places.

Columns and labels:
rat GalR2 = biological target: T1, rat GalR2 (Rattus norvegicus, UniProt O08726); test: Calcium assay at orthologue receptor; format: cell-based; conditions: Table 8; Calcium assays; mean +/− standard deviation
T1 sequence (O08726 1-372): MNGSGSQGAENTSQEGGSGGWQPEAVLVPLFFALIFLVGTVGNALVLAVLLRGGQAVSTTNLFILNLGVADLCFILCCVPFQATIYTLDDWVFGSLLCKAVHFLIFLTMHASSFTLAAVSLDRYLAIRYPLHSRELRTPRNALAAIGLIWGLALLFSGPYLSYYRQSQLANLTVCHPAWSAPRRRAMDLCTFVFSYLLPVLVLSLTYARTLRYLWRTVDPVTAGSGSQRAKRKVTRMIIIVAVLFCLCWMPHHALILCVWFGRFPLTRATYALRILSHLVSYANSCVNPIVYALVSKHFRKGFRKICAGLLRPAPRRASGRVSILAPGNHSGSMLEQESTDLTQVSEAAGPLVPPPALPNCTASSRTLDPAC
Source text: These species were chosen as they represent potential downstream in vivo models to be used. […] Calcium imaging was used to define receptor activity.

[1] = tested on: mouse chemotherapy-induced model of neuropathic pain; test: Oxaliplatin chemotherapy-induced neuropathic pain model, von Frey; format: in vivo; conditions: 0.1, 1 and 3 mg/kg i.p.; 4 hours post dose (day 5 after Oxaliplatin)
Protocol: Oxaliplatin-induced hypersensitivity: A single dose of Oxaliplatin was injected intraperitoneally (i.p.) at 10 mg/kg at a volume of 10 ml/kg. Oxaliplatin was dissolved in 5% dextrose to 1 mg/ml before use. Animals were injected in the same order in which they were tested.
Static mechanical tactile allodynia: Static mechanical (tactile) allodynia was assessed by measurement of withdrawal threshold using calibrated (force; g) von-Frey monofilaments (Touch-Test Sensory Evaluator; Scientific Marketing Associates) applied to the plantar surface of the hind paw. Animals were placed in individual Perspex boxes on a raised metal mesh for 30-40 min before the test. A series of graduated von Frey hairs (0.07, 0.16, 0.4, 0.6 and 1 g) was applied in sequence with a protocol of 1 sec on 1 sec off repeated 10 times. […] The force applied to the hind-paw of the animal to induce 5 responses out of 10 trials was recorded as paw withdrawal threshold (PWT).
Baseline PWT was assessed on three consecutive days (Day-3, Day-2 and Day-1). […]
Mechanical allodynia was re-assessed on Day 3 and 4 post-administration of a single dose of Oxaliplatin to monitor the development of allodynia. […]
Mechanical allodynia was re-assessed on Day 5 (4 hours post dose) and thereafter determined on Days 6 and 7 after administration of Oxaliplatin (i.e. 24 hours and 48 hours post FC2-13 treatment). […]

[2] = tested on: mouse CCI model of neuropathic pain; format: in vivo; conditions: for minimal effective dose (at 4 hrs): von Frey, 4 hrs post-dose
Source text: The Chronic Constriction Injury (CCI) model of neuropathic pain involves unilateral loose ligation of four ligatures around the left sciatic nerve at mid-thigh level spaced 1 mm apart (Chaplan S R, et al J Neurosci Methods. 1994 July; 53(1):55-63). This procedure results in the development of hyperalgesia, allodynia and spontaneous pain (ectopic discharges) which can be measured using mechanical and thermal behavioural assessments. […] The mouse CCI model of neuropathic pain differs from that of the rat by virtue of 3 ligatures around the sciatic nerve instead of 4.
Static mechanical tactile allodynia: Static mechanical (tactile) allodynia was assessed by measurement of withdrawal threshold using calibrated (force; g) von-Frey monofilaments (Touch-Test Sensory Evaluator; Scientific Marketing Associates) applied to the plantar surface of the hindpaw. The animals were placed in individual Perspex boxes on a raised metal mesh for 30-40 min before the test. A series of graduated von Frey hairs (0.07, 0.16, 0.4, 0.6 and 1 g) was applied in sequence with a protocol of 1 sec on 1 sec off repeated 10 times. Each hair was applied perpendicularly to the centre of the ventral surface of the paw until it bent slightly. The force applied to the hind-paw of the animal to induce 5 responses out of 10 trials was recorded as paw withdrawal threshold (PWT).
Baseline PWT was assessed on three consecutive days (Day-2, Day-1 and Day 0) and the mean of the last two readings used as the baseline withdrawal threshold.
On Day 1, neuropathic pain was induced via ligation of the sciatic nerve using three loose ligatures of prolene sutures (Chronic Constriction Injury). Under Isoflurane anaesthesia mixed with oxygen (3:1, 1 L/min) the left hind leg was shaved mid-thigh level and an incision made through the skin using a scalpel. The biceps femoris muscle layer was dissected by making an initial incision using a pair of sharp scissors, which was then widened using a pair of blunt scissors. The common sciatic nerve was exposed using a pair of forceps and 3 loose ligatures of prolene (7-0, Ethicon) were tied around the sciatic nerve with 1 mm spacing between each. The nerve was then returned below the muscle layer and the wound closed using absorbable sutures (Vicryl).
Von Frey assessment of mechanical allodynia was taken on days 19 and 22. Animals were then ranked and randomised (based on a Latin square design) to treatment groups according to the percentage change (compared to pre-surgery baseline) of the mean mechanical withdrawal threshold observed on days 19 and 22. Only those animals showing a PWT percentage change of >60% from pre-surgery baseline were included in the study.
Dosing took place on day 23 with either vehicle, test compound (i.p.) or Pregabalin (15 mg/kg p.o.) at 10 ml/kg. Allodynia was then assessed at intervals thereafter e.g. 2, 4 and 24 hours post dose. von Frey measurement continued until activity disappeared up to day 27.
For studies involving a repeat administration, dosing took place on day 23 with either vehicle, test compound (i.p.) or Pregabalin (15 mg/kg p.o.) at 10 mL/kg. Allodynia was then assessed at intervals thereafter e.g. 4, 24 and 48 hours post dose. Animals were re-dosed at 68, 116, 164, 212, 260, 308 hours, with von Frey measurements conducted 4 hrs after each administration. Allodynia was therefore measured at 72, 120, 168, 216, 264, and 312 hours post initial dose, equating to repeat dosing 2, 3, 4, 5, 6 and 7 times, respectively
Evaluation of study & Statistical analysis: vF withdrawal threshold (g) was assessed by a series of graduated von Frey hairs (0.07, 0.16, 0.4, 0.6 and 1 g) applied in sequence to the ipsilateral hindpaw with a protocol of 1 sec on 1 sec off repeated 10 times. Each hair was applied perpendicularly to the centre of the ventral surface of the paw until it bent slightly. […]

| Substance | Rat GalR2 activity (rat GalR2) | reversal of Oxaliplatin-induced mechanical hyperalgesia [1] | effect on withdrawal threshold, low dose ([2]; 0.03 mg/kg i.p., 4 hours) | effect on withdrawal threshold, low dose ([2]; 0.1 mg/kg, 24 hours) | effect-desensitisation on repeat administration ([2]; 0.3 and 1 mg/kg i.p., re-dosed days 3-13) | minimal effective dose (at 4 hrs) ([2]; mouse CCI) [mg/kg i.p.] | duration of statistically significant reversal of mechanical hyperalgesia ([2]; mouse CCI, highest and lowest doses tested) | Minimum Effective Dose [MED] ([2]; mouse CCI, multiple studies taken collectively) [mg/kg i.p.] | sustained reversal on repeat dosing, duration ([2]; mouse CCI, repeat dosing) [days] | minimal effective dose ([2]; mouse CCI, study with 1, 3, 10 and 30 mg/kg i.p.) [mg/kg i.p.] | sedation (observational during testing) ([2]; mouse, in vivo) | reversal of CCI-induced mechanical hyperalgesia ([2]; 3, 10 and 30 mg/kg i.p., 2 and 4 hrs) | effect on CCI-induced mechanical hyperalgesia at 24 hrs ([2]; 24 hrs, any of the doses tested (1-30 mg/kg i.p.)) |
| --- | --- | --- | --- | --- | --- | --- | --- | --- | --- | --- | --- | --- | --- |
| Gal2-13FC: galanin 2-13, AEAAAKEAAAKA linker, human IgG1 FC; SEQ ID NO: 7 | 6.5 +/− 0.1 | efficacious | effective | statistically significant | no loss of effect | 0.03 | up to 96 hrs post-dose | ≤ 0.03 | ≥ 13 | ≤ 1 | not associated with overt sedation |  |  |
| Gal2-30FC: galanin 2-30, AEAAAKEAAAKA linker, human IgG1 FC; SEQ ID NO: 28 |  |  |  |  |  | 3 |  |  |  |  |  | efficacious and reversed CCI-induced mechanical hyperalgesia | not at 24 hrs |
